Measurements taken from patent publication US12116364B2, “Heteroaryl compounds and uses thereof” (APRINOIA THERAPEUTICS INC., priority 2018, dated 2024).

What was measured:
[1] = biological target: recombinant tau proteins (human Tau, heparin-fiberized) (Homo sapiens, UniProt P10636); test: Fluorescence quantitative Tau binding assay in vitro; conditions: 0.04 uM fiberized recombinant tau, 30 mM Tris pH 7.5, 1 h, fluorometric saturation curve
Procedure: Expression and Purification of Human Tau Protein
• pET41a-Tau wild type • One Shot® BL21(DE3) Chemically Competent E. coli (Invitrogen, C600003) • Kanamycin sulfate (Sangon Biotech, A506636) • IPTG (Sangon Biotech, A100487) • Pipes buffer (100 mM Pipes, pH6.8, 1 mM EGTA, 1 mM MgSO4) • Hepes buffer (25 mM Hepes, pH7.2, 0.1 mM EDTA, 0.5 mM DTT, 100 mM NaCl) • Q-Sepharose Fast Flow column (GE Healthcare, 17-0510-01) • SP-Sepharose Fast Flow column (GE Healthcare, 17-0729-01) Procedures: Protein Expression: • Step 1: Transform 1 uL expression plasmid pET41a-tau wt into one One Shot® BL21(DE3) Chemically Competent E. coli, on ice 30 min. • Step 2: 42° C. heat shock 90 second and on ice 2 min, 37° C. recovery for 30 min, Plate small amount on LB(Kan+) agar plate incubate overnight at 37° C. • Step 3: Pick and resuspend a single colony in 200 mL liquid culture with 50 ug/mL Kanamycin to produce a starter culture. Inoculate starter culture and shake 200 rpm overnight at 37° C. • Step 4: Add 100× dilution Starter into fresh culture medium (Kan+) shake 200 rpm at 37° C. until OD600=0.8. • Step 5: Add IPTG (final conc. 1 mM) and express protein for 3 hr. • Step 6: Collect cell pellet and store at −80° C. for purification. Protein Purification: • Step 1: Cell pellet was resuspended in Pipes buffer. • Step 2: Sonication and centrifugation (15,000 rpm, 15 min at 4° C. • Step 3: The supernatant was placed in a boiling water bath for 20 min and subsequently centrifuged. The heat-stable proteins in the supernatant were loaded onto a Q-Sepharose Fast Flow column (20 mL) • Step 4: The flow through containing tau was loaded onto SP-Sepharose Fast Flow column (10 mL), eluted with Pipes buffer containing 0.2M NaCl. • Step 6: Fractions containing tau were pooled, concentrated and dialyzed against Hepes buffer, stored at −80° C. • Step 7: Reload SP-Flow through into Q-Sepharose Fast Flow column (20 mL) and SP-Sepharose Fast Flow column (10 mL) again, eluted with Pipes buffer containing 0.2M NaCl. • Step 8: Fractions containing tau were pooled, concentrated and dialyzed against Hepes buffer, stored at −80° C. Repeat step 6-7 twice, Collect all above all elution product and concentrated. Biological Assays Fluorescence Quantitative Tau Binding Assay In Vitro
2 uM of recombinant tau proteins and 15 uM of heparin were fiberized in 30 mM Tris (pH 7.5) buffer by overnight incubation at 37° C. 0.04 uM of recombinant tau proteins which was diluted in 30 mM Tris buffer (pH 7.5) was then reacted with test compounds (containing 1% DMSO) for 1 h. Regarding the fluorometric data, the binding saturation curve was created and the parameter estimation method was conducted using Prism software (GraphPad). Kd values were determined for each of test compounds. Table A lists Kd values of exemplary test compounds.

[2] = biological target: [11C]PBB3 binding sites (tau aggregates) in temporal cortex homogenates of an Alzheimer's disease patient (Homo sapiens, UniProt P10636); test: Fluorescence competitive binding assay in vitro ([11C]PBB3 displacement in Alzheimer's disease temporal cortex homogenates); conditions: 5 nM [11C]PBB3, AD temporal cortex homogenate (100 μg tissue), 30 min, room temperature
Chain of [11C]PBB3 binding sites (tau aggregates) in temporal cortex homogenates of an Alzheimer's disease patient (P10636 623-695 limits assumed): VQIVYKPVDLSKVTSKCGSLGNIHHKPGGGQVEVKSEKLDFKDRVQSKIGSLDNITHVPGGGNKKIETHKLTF
Procedure: Fluorescence competitive binding assay in vitro was performed as reported previously1. Frozen tissues derived from the temporal cortex of an Alzheimer's disease patient was homogenized in 50 mM Tris-HCl buffer, pH 7.4, containing protease inhibitor cocktail (cOmplete™, EDTA-free; Roche), and stored at −80° C. pending analyses. To assay radioligand binding with homologous or heterologous blockade, these homogenates (100 μg tissue) were incubated with 5 nM [11C]PBB3 (molar radioactivity: 100-150 GBq/μmol) in the absence or presence of unlabeled PBB3 at varying concentrations ranging from 10-11-106 M in Tris-HCl buffer containing 10% ethanol, pH 7.4, for 30 min at room temperature. Non-specific binding of [11C]PBB3 was determined in the presence of 5×10^−7 M PBB3. Samples were run once only and specific radioligand binding was determined as pmol/g tissue. Inhibition constant (Ki) and percentage of displacement were determined by using non-linear regression to fit a concentration-binding plot to one-site and two-site binding models derived from the Cheng-Prusoff equation with GraphPad Prism version 6.0 (GraphPad Software), followed by F-test for model selection. In a one-site homologous blockade model, dissociation constant (Kd) was calculated from homologous competitive binding using this function: Kd=Ki=IC50−Radioligand
where IC50 and [Radioligand] stand for the concentration of the competitor inducing 50% inhibition and radioligand concentration, respectively. Experiments with [^11C]PBB3 and unlabeled PBB3 were performed in a dimly lit condition to avoid photoconversion of the compounds. Table B lists Ki values of exemplary test compounds.

[3] = test system: tau aggregates (tangles/threads) in temporal cortex sections of an AD brain; test: Histological examination by fluorescence staining of AD brain sections; type: binding, human; conditions: 0.001% (W/V) compound in 50% ethanol, 30 min, relative to PBB3; for Fluorescent binding Tangle: score for tangles; for Fluorescent binding Thread: score for threads
Procedure: The fluorescence binding assessment was performed as reported previously^1. For fluorescence labeling with PBB3 and test compounds, deparaffinized temporal cortex sections of an AD brain were incubated in 50% ethanol containing 0.001% (W/V) of PBB3 or test compound at room temperature for 30 min. The samples were rinsed with 50% ethanol for 5 min, dipped into distilled water twice for 3 min, and mounted in non-fluorescent mounting media ([…]; Vector Laboratories). Fluorescence images were captured using a DM4000 microscope (Leica) equipped with a custom filter cube for PBB3 (excitation band-pass at 391-437 nm and suppression low-pass with 458 nm cutoff).

Chain of recombinant tau proteins (human Tau, heparin-fiberized) (P10636 whole entry): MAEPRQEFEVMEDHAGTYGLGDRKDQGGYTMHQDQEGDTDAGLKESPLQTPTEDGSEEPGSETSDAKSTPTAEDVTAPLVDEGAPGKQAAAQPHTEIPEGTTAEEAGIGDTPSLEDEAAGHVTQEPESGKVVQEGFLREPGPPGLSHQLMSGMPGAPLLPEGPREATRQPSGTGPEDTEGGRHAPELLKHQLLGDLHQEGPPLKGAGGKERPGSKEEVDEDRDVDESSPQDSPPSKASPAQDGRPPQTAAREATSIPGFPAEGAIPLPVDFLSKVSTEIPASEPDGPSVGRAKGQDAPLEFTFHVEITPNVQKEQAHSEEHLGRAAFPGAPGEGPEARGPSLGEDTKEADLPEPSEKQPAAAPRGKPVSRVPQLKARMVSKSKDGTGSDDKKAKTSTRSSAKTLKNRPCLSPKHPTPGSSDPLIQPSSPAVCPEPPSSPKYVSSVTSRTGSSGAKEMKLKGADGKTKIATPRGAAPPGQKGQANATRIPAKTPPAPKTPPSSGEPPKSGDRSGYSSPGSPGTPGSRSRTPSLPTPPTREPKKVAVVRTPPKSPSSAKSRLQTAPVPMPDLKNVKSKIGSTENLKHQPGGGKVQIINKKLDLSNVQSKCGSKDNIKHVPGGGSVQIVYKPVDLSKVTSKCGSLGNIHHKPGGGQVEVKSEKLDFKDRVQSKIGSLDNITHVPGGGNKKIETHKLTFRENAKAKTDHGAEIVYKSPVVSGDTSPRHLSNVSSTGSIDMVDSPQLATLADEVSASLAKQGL

Row | Compound | Kd [1] | Ki [2] | Fluorescent binding Tangle [3] | Fluorescent binding Thread [3]
1 | CNc1ccc(-c2cnc(-c3cc4ccncc4[nH]3)cc2F)cn1 [Compound T, 5-[4-Fluoranyl-6-(1H-pyrrolo[2,3-c]pyridin-2-yl)pyridin-3-yl]-N-methyl-pyridin-2-amine] | 2510 nM | 140 nM | 2.5/2.5 | 2.5/2.5
2 | COc1ccc2nc(-c3ccc(-c4ccc(N(C)C)nc4F)cc3)cn2c1 [Compound Q, 6-Fluoranyl-5-[4-(6-methoxyimidazo[1,2-a]pyridin-2-yl)phenyl]-N,N-dimethyl-pyridin-2-amine] | 520 nM | 5 nM | 1 | 0.5
3 | CNc1ccc(-c2ccc(-c3nc4ccc(NCC(O)CF)cc4s3)nc2)cn1 (centres unmarked) [Compound V, 1-Fluoranyl-3-[[2-[5-[6-(methylamino)pyridin-3-yl]pyridin-2-yl]-1,3-benzothiazol-6-yl]amino]propan-2-ol] | 3570 nM | 7.5 nM | 2.5/2.5 | 2.5/2.5
4 | COc1ccc(-c2ccc(-c3cc4ccn(CCO)cc-4n3)cc2)cc1 [Compound F, 2-(2-(4′-Methoxybiphenyl-4-yl)-6H-pyrrolo[2,3-c]pyridine-6-yl)ethanol] | 340 nM | – | – | –
5 | CN(C)c1ccc(-c2ccc(-c3cc4ccn(CC(O)CF)cc-4n3)cc2)cn1 (centres unmarked) [Compound G, 1-(2-(4-(6-(Dimethylamino)pyridin-3-yl)phenyl)-6H-pyrrolo[2,3-c]pyridin-6-yl)-3-fluoropropan-2-ol] | 280 nM | 10 nM | 2 | 0.5
6 | Nc1ccc(-c2ccc(-c3nc4ccncc4o3)cc2)cn1 [Compound H, 5-(4-(Oxazolo[5,4-c]pyridin-2-yl)phenyl)pyridin-2-amine] | 90 nM | – | – | –
7 | COc1ccc2nc(-c3ccc(-c4ccc(N(C)C)nc4)nc3F)cn2c1 [Compound U, 6-Fluoro-5-(6-methoxyimidazo[1,2-a]pyridin-2-yl)-N,N-dimethyl-2,3′-bipyridin-6′-amine] | 1510 nM | – | – | –
8 | CNc1ncc(-c2cc(F)c(-c3nc4ccc(N)cc4s3)cn2)cn1 [Compound Z, 2-(4-Fluoro-6-(2-(methylamino)pyrimidin-5-yl)pyridin-3-yl)benzo[d]thiazol-6-amine] | 1450 nM | 5 nM | 3/3 | 3/3
9 | CN(C)c1ccc(-c2ccc(-c3nc4ccc(NCC(O)CF)cc4s3)c(F)n2)cn1 (centres unmarked) [Compound X, 1-[[2-[6-[6-(dimethylamino)pyridin-3-yl]-2-fluoranyl-pyridin-3-yl]-1,3-benzothiazol-6-yl]amino]-3-fluoranyl-propan-2-ol] | 170 nM | – | – | –
10 | CNc1ccc(-c2ccc(-c3cc4ccnc(O)c4[nH]3)cc2)cn1 [Compound C, 2-(4-(6-(Methylamino)pyridin-3-yl)phenyl)-1H-pyrrolo[2,3-c]pyridin-7-ol] | 250 nM | 25 nM | 2 | 1.5
11 | CN(C)c1ccc(-c2ccc(-c3cn4cc(OCC(O)CF)ccc4n3)cc2)cn1 (centres unmarked) [Compound O, 1-(2-(4-(6-(Dimethylamino)pyridin-3-yl)phenyl)imidazo[1,2-a]pyridin-6-yloxy)-3-fluoropropan-2-ol] | 270 nM | 10 nM | 1.5/1.5 | 1.5/1.5
12 | Nc1ccc(-c2ccc(-c3cc4cnccc4[nH]3)cc2)cc1F [Compound L, 3-Fluoro-4′-(1H-pyrrolo[3,2-c]pyridin-2-yl)biphenyl-4-amine] | 540 nM | 5 nM | 2.5 | 1.5
13 | CNc1ccc(-c2ccc(-c3cc4cnccc4[nH]3)cc2)cn1 [Compound M, 5-(4-(1H-Pyrrolo[3,2-c]pyridin-2-yl)phenyl)-N-methylpyridin-2-amine] | 2630 nM | 15 nM | 2.5 | 2
14 | Nc1ccc2nc(-c3ccc(-c4ccc(NCCF)nc4)cc3)sc2c1 [Compound I, 2-(4-(6-((2-Fluoroethyl)amino)pyridin-3-yl)phenyl)benzo[d]thiazol-6-amine] | 800 nM | 5 nM | 2 | 1.5
15 | CNc1ncc(-c2ccc(-c3nc4ccc(N)cc4s3)c(F)n2)cn1 [Compound Y, 2-[2-Fluoranyl-6-[2-(methylamino)pyrimidin-5-yl]pyridin-3-yl]-1,3-benzothiazol-6-amine] | > 10000 nM | – | – | –
16 | CNc1ccc(-c2ccc(-c3cc4ccncc4[nH]3)c(F)n2)cn1 [Compound E, 6-Fluoro-N-methyl-5-(1H-pyrrolo[2,3-c]pyridin-2-yl)-2,3′-bipyridin-6′-amine] | 2700 nM | 5 nM | 3/3 | 3/3
17 | CN(C)c1ccc(-c2ccc(-c3nc4ccncc4n3CCF)cc2)cn1 [Compound K, 5-[4-[3-(2-fluoranylethyl)imidazo[4,5-c]pyridin-2-yl]phenyl]-N,N-dimethyl-pyridin-2-amine] | 3500 nM | – | – | –
18 | CNc1ccc(-c2ccc(-c3cn4cc(NCC(O)CF)ccc4n3)cc2)cn1 (centres unmarked) [Compound P, 1-Fluoro-3-(2-(4-(6-(methylamino)pyridin-3-yl)phenyl)imidazo[1,2-a]pyridin-6-ylamino)propan-2-ol] | 370 nM | 45 nM | 1 | 0
19 | Nc1cccc(-c2ccc(-c3cc4ccncc4[nH]3)cc2)c1 [Compound A, 3-[4-(1H-Pyrrolo[2,3-c]pyridin-2-yl)phenyl]aniline] | 500 nM | 45 nM | 2/2 | 2/2
20 | CNc1ccc(-c2ccc(-c3cc4ccncc4[nH]3)cc2)c(F)n1 [Compound D, 5-(4-(1H-Pyrrolo[2,3-c]pyridin-2-yl)phenyl)-6-fluoro-N-methylpyridin-2-amine] | 690 nM | 1 nM | 3/3 | 3/3
